From ChEMBL document CHEMBL1145169, “Discovery of substituted maleimides as liver X receptor agonists and determination of a ligand-bound crystal structure” (J Med Chem, 2005)
Where “and” joins values, the source holds several entries; their conditions need not be identical. Identical values can stand only once.

How the values were obtained:
[1] = biological target: Glycogen synthase kinase-3 beta (Homo sapiens, UniProt P49841); test: Inhibition of human GSK3-beta
[2] = biological target: T1, Oxysterols receptor LXR-alpha (Homo sapiens, UniProt Q13133); test: Effective concentration for Steroid receptor coactivator-1 (SRC1) recruitment to human LXRalpha (Liver X receptor)
T1 sequence (Q13133 whole entry): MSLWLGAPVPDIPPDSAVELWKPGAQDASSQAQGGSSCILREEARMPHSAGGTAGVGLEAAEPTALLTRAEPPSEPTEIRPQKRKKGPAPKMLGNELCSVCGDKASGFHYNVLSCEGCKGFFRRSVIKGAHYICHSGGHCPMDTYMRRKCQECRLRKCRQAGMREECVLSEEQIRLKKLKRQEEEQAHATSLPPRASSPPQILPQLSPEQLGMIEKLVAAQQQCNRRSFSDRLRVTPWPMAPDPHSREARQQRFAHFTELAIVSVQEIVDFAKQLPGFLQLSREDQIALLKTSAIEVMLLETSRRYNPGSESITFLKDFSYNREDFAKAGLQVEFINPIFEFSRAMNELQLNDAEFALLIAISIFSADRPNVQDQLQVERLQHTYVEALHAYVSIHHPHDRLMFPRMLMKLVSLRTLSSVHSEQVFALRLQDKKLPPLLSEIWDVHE

[3] = biological target: T2, Oxysterols receptor LXR-beta (Homo sapiens, UniProt P55055); test: Effective concentration for Steroid receptor coactivator-1 (SRC1) recruitment to human LXRbeta (Liver X receptor)
T2 sequence (P55055 whole entry): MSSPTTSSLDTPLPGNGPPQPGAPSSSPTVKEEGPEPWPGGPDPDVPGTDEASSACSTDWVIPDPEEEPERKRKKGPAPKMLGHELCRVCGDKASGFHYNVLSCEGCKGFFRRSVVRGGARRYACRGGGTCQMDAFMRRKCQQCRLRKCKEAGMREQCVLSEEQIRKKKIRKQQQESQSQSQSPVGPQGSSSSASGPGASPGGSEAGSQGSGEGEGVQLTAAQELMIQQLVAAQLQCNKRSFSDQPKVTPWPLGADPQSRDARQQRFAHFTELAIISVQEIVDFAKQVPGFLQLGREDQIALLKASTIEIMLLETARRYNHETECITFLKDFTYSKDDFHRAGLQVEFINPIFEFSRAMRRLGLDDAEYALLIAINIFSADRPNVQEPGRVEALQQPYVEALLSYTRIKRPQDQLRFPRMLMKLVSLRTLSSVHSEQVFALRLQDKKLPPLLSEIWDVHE

[4] = Effective concentration in human ATP binding cassette transporter A1 (ABCA1) transcriptional activation assay
[5] = organism: Homo sapiens
Description: Relative efficacy in human ATP binding cassette transporter A1 (ABCA1) transcriptional activation assay compared to GW-3965

[6] = biological target: T3, Oxysterols receptor LXR-alpha (Homo sapiens) (UniProt Q13133)
T3 sequence (whole entry): T1 sequence (Q13133 whole entry)
Description: Relative efficacy for Steroid receptor coactivator-1 (SRC1) recruitment to human LXRalpha compared to GW-3965

[7] = biological target: T4, Oxysterols receptor LXR-beta (Homo sapiens) (UniProt P55055); test: Relative efficacy in Steroid receptor coactivator-1 (SRC1) recruitment to human LXRbeta compared to GW-3965
T4 sequence (whole entry): T2 sequence (P55055 whole entry)

Sequence of Glycogen synthase kinase-3 beta (P49841 whole entry): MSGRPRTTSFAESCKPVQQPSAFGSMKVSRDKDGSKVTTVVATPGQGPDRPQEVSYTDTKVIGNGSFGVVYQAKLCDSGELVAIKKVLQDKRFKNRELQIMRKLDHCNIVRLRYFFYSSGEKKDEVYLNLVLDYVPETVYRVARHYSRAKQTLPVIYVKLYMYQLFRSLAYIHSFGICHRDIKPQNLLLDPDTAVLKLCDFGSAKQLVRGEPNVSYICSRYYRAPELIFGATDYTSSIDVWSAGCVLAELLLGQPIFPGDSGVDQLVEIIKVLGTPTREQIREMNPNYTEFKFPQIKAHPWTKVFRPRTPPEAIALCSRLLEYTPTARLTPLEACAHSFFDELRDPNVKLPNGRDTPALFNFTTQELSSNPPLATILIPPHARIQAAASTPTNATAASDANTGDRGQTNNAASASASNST

Row | IC50 [1] [nM] | EC50 [2] [nM] | EC50 [3] [nM] | EC50 [4] [nM] | RE [5] | RE [6] | RE [7] | SMILES
1 | > 5000 | 1590 | 850 | 4650 | 0.3 | 0.5 and 0.6 |  | CN1C(=O)C(Nc2ccccc2)=C(c2ccccc2)C1=O
2 | > 2000 | 575 | 300 | 840 | 1.4 | 0.9 |  | COc1ccc(NC2=C(c3ccccc3)C(=O)N(C)C2=O)cc1
3 | > 5000 | 130 | 110 | 1420 | 0.4 | 0.3 and 0.4 |  | O=C1C(Nc2ccc(Cl)cc2)=C(c2ccccc2)C(=O)N1Cc1ccccc1
4 | > 5000 | 100 | 70 | 1320 | 0.6 | 0.3 and 0.5 |  | O=C1C(Nc2ccccc2)=C(c2ccccc2)C(=O)N1Cc1ccccc1
5 |  | 80 |  | 170 | 1 | 1 | 1 | O=C(O)Cc1cccc(OCCCN(Cc2cccc(C(F)(F)F)c2Cl)CC(c2ccccc2)c2ccccc2)c1
6 |  |  |  | 70 | 1 | 1.1 and 0.8 |  | O=S(=O)(c1ccccc1)N(CC(F)(F)F)c1ccc(C(O)(C(F)(F)F)C(F)(F)F)cc1 [T091317]
7 | > 5000 | 725 | 575 | 4550 | 0.4 | 0.5 and 0.6 |  | CCN1C(=O)C(Nc2ccc(Cl)cc2)=C(c2ccccc2)C1=O
8 | > 5000 | 300 | 200 | 10200 | 0.4 | 1.1 and 0.9 |  | CCN1C(=O)C(Nc2ccc(OC)cc2)=C(c2ccccc2)C1=O
9 | > 5000 | 50 | 40 | 80 | 0.9 | 0.9 |  | COc1ccc(NC2=C(c3ccccc3)C(=O)N(Cc3ccccc3)C2=O)cc1
10 | > 5000 | 890 | 560 | 1790 | 0.5 | 0.7 |  | CCN1C(=O)C(Nc2ccccc2)=C(c2ccccc2)C1=O
11 | > 5000 | 275 | 260 | 1120 | 0.7 | 0.7 and 0.6 |  | COc1ccc(NC2=C(c3ccccc3)C(=O)N(c3ccccc3)C2=O)cc1
